System: chorioallantoic membrane of the preincubated Leghorn hen's egg
Experiment: HET-CAM (Hen's Egg Test ChorioAllantoic Membrane) test of ocular irritation potential
Conditions: for Classification of the concentrate tested: HET-CAM, active material concentration of 1%, pH 7, class by scale of the index I
Description: The experimental protocol of this test is adapted from the Luepke publication (The Hen's Egg Test: “An Alternative Toxicity Test”, Brit. J. Dermato., 1986, 115. Suppl. 31, 133-135, Luepke N. P. & Kemper F. H. The HET-CAM Test: “An Alternative to the Draize Test”, Food Chem. Toxicol., 1986, 24, No. 6/7, 495-496), from the INVITTOX No. 47 protocol (1992, INVITTOX data bank, 34 Stoney Street, Nottingham, NG1 1NB, UK) and from Annex IV to the order published in the Official Journal of the French Republic of 26 Dec. 1996 relating to the official methods for the analysis of beauty products (NOR: FCEC9600217A).
This tests consists in assessing the irritation potential of a substance by reading the modifications observed after application of a solution of this substance to the richly vascularized chorioallantoic membrane of the preincubated Leghorn hen's egg.
The products were tested at an active material concentration of 1%. The solutions are prepared by diluting in deionized water at most 24 hours in advance.
The pH of the test solutions is adjusted to 7 with triethanolamine or lactic acid, if necessary.
On reception, the fertilized eggs are preincubated in an incubator for 10 days at 37.8° C.±0.5° C. with a degree of humidity in the incubator of 50% to 60%.
The shell of the eggs on which the tests are carried out is cut out around the air pocket and the chorioallantoic membrane is uncovered by carefully removing the shell membrane using tweezers.
0.3 cm^3 of the solution to be tested is deposited at the surface of the membrane. […]
By definition, if one of the phenomena has not appeared during these five minutes (300 seconds), it is recorded ti=301 seconds.
Each solution is tested on 4 to 6 eggs according to the repeatability of the reactions observed. The Het-Cam index I, representative of the test, is calculated for each egg tested in the following way: I=5×(301−t1)/300+7×(301−t2)/300+9×(301−t3)/300
The mean of the individual indices is subsequently calculated, along with the statistical uncertainty i: i=t·S/√n for a risk of 5% […]

For “Sodium lauryl ether (2.2 EO) sulfate [compound 1]”, the “Classification of the concentrate tested” value was “Irritating (9 ≦ . . . I < 12)”, the “Classification of the concentrate tested” value (listed as comparative example 1) was “irritating” and the Het-Cam index (active material concentration of 1% in deionized water, pH adjusted to 7, 0.3 cm^3 on membrane, rinsed after 20 seconds, read over 5 minutes, mean of 4 to 6 eggs) was 10.7.

Reference: patent publication US7902135B2, “Method of improving the ocular tolerance of foaming and/or detergent compositions for skin use” (Societe d'Exploitation de Produits pour les Industries …, priority 2006, dated 2011)
